A short description of series [1]: Solubility according to Japanese Pharmacopoeia general notices, analyzed by HPLC. It counts as physicochemical. The following applies: thermodynamic from solid, treated according to Japanese Pharmacopoeia. As to the method:
The compounds of Examples 9, 12 and 15 were measured and placed in a glass container by 1 mg each, saline was added in small portions, and the mixture was stirred. The solubility was visually observed. In addition, as a conventional compound having a nitric oxide (NO) production inhibitory effect and an inflammatory cytokine production inhibitory effect, ethyl 6-[N-(2-chloro-4-fluorophenyl)sulfamoyl]cyclohex-1-ene-1-carboxylate (indicated as conventional compound in Table 1) was treated according to the Japanese Pharmacopoeia, general notices, and analyzed by HPLC to determined the solubility.

Series [2] relates to Female BALB/c mice inoculated with LPS. Description: Evaluation of efficacy in mouse endotoxin shock model. In kind it is in vivo. The following applies: 10 mg/kg intravenously in saline, 1 hr before LPS 5 mg/kg intraperitoneally; survival at 5 days from LPS inoculation; 7 mice per group. As to the method:
Female BALB/c mice (6-week-old) were purchased and, after preliminary rearing for 1 week, divided into groups (7 per group). The compound of Example 3 was dissolved in saline immediately before administration, and intravenously administered at 10 mg/kg. For the control group, a solvent was administered in the same manner. One hour later, LPS (5 mg/kg) was intraperitoneally inoculated, and the survival of the mice was observed. The efficacy was evaluated based on the survival rate at 5 days from LPS inoculation.

The nature of the next series: physchem. The following applies: saline, saline or isotonic.

Converted amounts (≈) assume the structure as drawn. Structures can show the parent of a compound that is named as a salt.

In series [1], `CCOC(=O)C1=CCCCC1S(=O)(=O)Nc1ccc(F)cc1Cl` (stereo not shown) [Conventional compound, ethyl 6-[N-(2-chloro-4-fluorophenyl)sulfamoyl]cyclohex-1-ene-1-carboxylate] returned a solubility of 10 µg/mL (≈ 27.6 µM).

In the case of `CCOC(=O)C1=CCCCC1S(=O)(=O)N(COC(=O)OCCCC(=O)O)c1ccc(F)cc1Cl` (stereo not shown) [Example 3, sodium 4-({[((2-chloro-4-fluorophenyl){[2-(ethoxycarbonyl)cyclohex-2-en-1-yl]sulfonyl}amino)methoxy]carbonyl}oxy)butanoate], the “number of survived mice (N = 7)” value in series [2] stood at 6.

`CCOC(=O)C1=CCCCC1S(=O)(=O)N(Cc1cc(C)c(OC(=O)CNC)c(C)c1)c1ccc(F)cc1Cl` (stereo not shown) [Example 21, ethyl 6-[((2-chloro-4-fluorophenyl){3,5-dimethyl-4-[(N-methylglycyl)oxy]benzyl}amino)sulfonyl]cyclohex-1-ene-1-carboxylate hydrochloride] had a solubility in the series “physchem” of no less than 1000 µg/mL.

As to `CCOC(=O)C1=CCCCC1S(=O)(=O)N(Cc1cc(C)c(OC(=O)[C@@H]2CCCN2)c(C)c1)c1ccc(F)cc1Cl` (stereo partly drawn) [Example 23, 4-[((2-chloro-4-fluorophenyl){[2-(ethoxycarbonyl)cyclohex-2-en-1-yl]sulfonyl}amino)methyl]-2,6-dimethylphenyl L-prolinate], in “physchem”, the solubility is no less than 1000 µg/mL.

The record behind these values is patent US20090209585A1, “CYCLOALKENE DERIVATIVES, PROCESS FOR PRODUCTION OF THE DERIVATIVES, AND USE OF THE SAME” (priority 2006, published 2009).
